Test results published in US20240000789A1, “THERAPEUTIC COMBINATIONS COMPRISING A CRAF INHIBITOR” (NOVARTIS AG, priority 2020, published 2024).
Where two headings read alike, the source gives them in different places.

Assays:
HMEX2921 (NRAS^Q61K) = conditions: HMEX 2921, p.o. mg/kg (days post treatment): Compound A 50 bid (12); for % change in tumor volume Mean +/SEM: best response
Experimental: (§1) MEPC 4 stocks was diluted 5×(1:4 with DI Water) prior to dosing. Compound A was formulated at 2.5 mg/mL and 5 mg/mL.
(§2) Final pH is adjusted to 4-4.5. […] Tumor volume was determined as in Example 2.
(§3) The efficacy was carried out with 2-3 mice/group beyond this point.
(§4) Data analysis was carried out as described in Example 2.
(§5) Compound A was formulated at 5 mg/mL.
(§6) Tumor volume was determined as in Example 2.

HMEX3486 (NRAS^Q61K) = conditions: HMEX 3486, p.o. mg/kg (days post treatment): Compound A 50 bid (12); for % change in tumor volume Mean +/SEM: best response
Experimental: as §1, §2, §3, §4, §5, §6

HMEX4339 (NRAS^Q61R) = conditions: HMEX 4339, p.o. mg/kg (days post treatment): Compound A 50 bid (10); for % change in tumor volume Mean +/SEM: best response
Experimental: as §1, §2, §3, §4, §5, §6

HMEX5727 (NRAS^Q61K) = conditions: HMEX 5727; for % change in body weight Mean +/SEM: p.o. mg/kg (days post treatment): Compound A 50 bid (7); for % change in tumor volume Mean +/SEM: best response, p.o. mg/kg (days post treatment): Compound A 50 bid (7, last day of treatment)
Experimental: as §1, §2, §3, §4, §5, §6

[1] = Compound B 75 qd (12), combination 50 bid+15 qd (12)
[2] = ribociclib 75 qd (12), combination 50 bid+75 qd (12)
[3] = trametinib 0.3 qd (12), combination 50 bid+0.075 qd (12)
[4] = Compound B 75 qd (12), combination 25 bid+75 qd (29)
[5] = ribociclib 75 qd (12), combination 50 bid+75 qd (26)
[6] = trametinib 0.3 qd (12), combination 50 bid+0.075 qd (26)
[7] = Compound B 75 qd (10), combination 50 bid+15 qd (10)
[8] = ribociclib 75 qd (10), combination 50 bid+75 qd (53)
[9] = trametinib 0.3 qd (10), combination 50 bid+0.0375 qd (32)

**Q.** What does the source list for `Cc1ccc(NC(=O)c2ccnc(C(F)(F)F)c2)cc1-c1cc(OCCO)nc(N2CCOCC2)c1` [Compound A, N-(3-(2-(2-hydroxyethoxy)-6-morpholinopyridin-4-yl)-4-methylphenyl)-2-(trifluoromethyl)isonicotinamide]?
**A.** % change in body weight Mean +/SEM (HMEX2921 (NRAS^Q61K); [1]): −6.79 ± 1.48%; % change in body weight Mean +/SEM (HMEX2921 (NRAS^Q61K); [2]): −6.79 ± 1.48%; % change in body weight Mean +/SEM (HMEX2921 (NRAS^Q61K); [3]): −6.79 ± 1.48%; % change in tumor volume Mean +/SEM (HMEX2921 (NRAS^Q61K); [1]): 148.85%; % change in tumor volume Mean +/SEM (HMEX2921 (NRAS^Q61K); [2]): 148.85 ± 16.77%; % change in tumor volume Mean +/SEM (HMEX2921 (NRAS^Q61K); [3]): 148.85%; % change in body weight Mean +/SEM (HMEX3486 (NRAS^Q61K); [4]): 2.52 ± 1.14%; % change in body weight Mean +/SEM (HMEX3486 (NRAS^Q61K); [5]): 2.52 ± 1.14%; % change in body weight Mean +/SEM (HMEX3486 (NRAS^Q61K); [6]): 2.52 ± 1.14%; % change in tumor volume Mean +/SEM (HMEX3486 (NRAS^Q61K); [4]): 146.22%; % change in tumor volume Mean +/SEM (HMEX3486 (NRAS^Q61K); [5]): 146.22 ± 27.86%; % change in tumor volume Mean +/SEM (HMEX3486 (NRAS^Q61K); [6]): 146.22%; % change in body weight Mean +/SEM (HMEX4339 (NRAS^Q61R); [7]): 6.28 ± 4.04%; % change in body weight Mean +/SEM (HMEX4339 (NRAS^Q61R); [8]): 6.28 ± 4.04%; % change in body weight Mean +/SEM (HMEX4339 (NRAS^Q61R); [9]): 6.28 ± 4.04%; % change in tumor volume Mean +/SEM (HMEX4339 (NRAS^Q61R); [7]): 9.35%; % change in tumor volume Mean +/SEM (HMEX4339 (NRAS^Q61R); [8]): 9.35 ± 16.00%; % change in tumor volume Mean +/SEM (HMEX4339 (NRAS^Q61R); [9]): 9.35%; % change in body weight Mean +/SEM (HMEX5727 (NRAS^Q61K); Compound B 75 qd (7), combination 25 bid+75 qd (18)): −5.11 ± 1.35%; % change in body weight Mean +/SEM (HMEX5727 (NRAS^Q61K); ribociclib 75 qd (7), combination 50 bid+75 qd (35)): −5.11 ± 1.35%; % change in body weight Mean +/SEM (HMEX5727 (NRAS^Q61K); trametinib 0.3 qd (7), combination 50 bid+0.075 qd (31)): −5.11 ± 1.35%; % change in tumor volume Mean +/SEM (HMEX5727 (NRAS^Q61K); Compound B 75 qd (7, last day), combination 25 bid+75 qd (18)): 161.18%; % change in tumor volume Mean +/SEM (HMEX5727 (NRAS^Q61K); ribociclib 75 qd (7, last day), combination 50 bid+75 qd (35)): 161.18 ± 34.37%; % change in tumor volume Mean +/SEM (HMEX5727 (NRAS^Q61K); trametinib 0.3 qd (7, last day), combination 50 bid+0.075 qd (31)): 161.18%
